Test results from US9387221B2, “SDF-1 binding nucleic acids and the use thereof in cancer treatment” (NOXXON Pharma AG, priority 2010, dated 2016).

Tests used:
[1] = target: CXCR4 (Mus musculus, UniProt P70658); details: GBM mouse xenograft, irradiation; cited from earlier work
[2] = target: CXCR4 (Homo sapiens, UniProt P61073); details: MM cells in vivo, CXCR4 blockade; cited from earlier work
[3] = system: RPMI-8226 MM cells; experiment: Chemosensitization coculture of RPMI-8226 MM cells with stromal MS-5 cells; format: cell-based; details: 100 nM NOX-A12, 1 μM F-ara-A, 40 hours
Method: In order to mimic the in vivo interaction of the BM microenvironment with leukemia cells, an in vitro coculture system with murine BM stromal MS-5 cells and the multiple myeloma (abbr. MM) cell line RPMI 8226 was established. Aim of the experiment was to show whether SDF-1 binding […] NOX-A12 sensitizes MM cells in coculture with stromal cells to effects of chemotherapeutic agents. Stromal MS-5 cells secreting SDF 1 were incubated with SDF-1 binding […] NOX-A12 or the non-functional revNOX-A12. The MM cell line RPMI-8226 was added to the confluent stromal cell layer. The cells were then incubated with the chemotherapeutic agent F ara A (Fludarabine) for 40 hours. Cell Viability viability was measured. The murine stromal cell line MS-5 (ACC 441) was purchased from the DSMZ, the Multiple Myeloma cell line RPMI8226 (CCL-155) was purchased from the ATCC. The Multiple Myeloma cell line RPMI8226 was maintained in RPMI medium 1640 GlutaMAX (Invitrogen) supplemented with 10% FBS (Biochrom) and penicillin-streptomycin, the MS-5 cells were cultured in MEM alpha GlutaMAX (Invitrogen) with 10% FBS and penicillin-streptomycin. […] Cell viability and cell number were determined by Flow Cytometry using the Guava EasyCyte 6HT/2L (Millipore).

[4] = system: stromal MS-5 cells; experiment: Viability of stromal MS-5 cells in the coculture; format: cell-based, murine; details: data not shown
Method: The murine stromal cell line MS-5 (ACC 441) was purchased from the DSMZ, the Multiple Myeloma cell line RPMI8226 (CCL-155) was purchased from the ATCC. The Multiple Myeloma cell line RPMI8226 was maintained in RPMI medium 1640 GlutaMAX (Invitrogen) supplemented with 10% FBS (Biochrom) and penicillin-streptomycin, the MS-5 cells were cultured in MEM alpha GlutaMAX (Invitrogen) with 10% FBS and penicillin-streptomycin. For chemosensitization coculture experiments stromal MS-5 cells were seeded the day before onto 24-well plates (the inner eight wells) at a concentration of 8×10^4/mL/well in MEM alpha GlutaMAX medium (+10% FBS) and incubated at 37° C. in 5% CO2. The confluent stromal cell layer was washed and 0.5 mL RPMI medium 1640 (+1% FBS) was added to the wells. SDF-1 binding […] NOX-A12 or revNOX-A12 was subsequently added to the wells to a final concentration of 100 nM and incubated for four hours. 3.5×10^5 RPMI8226 cells in RPMI medium 1640 (+1% FBS) were added to the stromal cell layer. Four hours later, 1 μ[…] (Sigma Aldrich) was added to the cells when indicated. After 40 hours of incubation the cells were collected in 15 mL tubes, first the supernatant was harvested and then the attached cells were trypsinized including MS-5 cells. […] Cell viability and cell number were determined by Flow Cytometry using the Guava EasyCyte 6HT/2L (Millipore).

Sequence of CXCR4 (Homo sapiens, UniProt P61073) (P61073 whole entry, species assumed): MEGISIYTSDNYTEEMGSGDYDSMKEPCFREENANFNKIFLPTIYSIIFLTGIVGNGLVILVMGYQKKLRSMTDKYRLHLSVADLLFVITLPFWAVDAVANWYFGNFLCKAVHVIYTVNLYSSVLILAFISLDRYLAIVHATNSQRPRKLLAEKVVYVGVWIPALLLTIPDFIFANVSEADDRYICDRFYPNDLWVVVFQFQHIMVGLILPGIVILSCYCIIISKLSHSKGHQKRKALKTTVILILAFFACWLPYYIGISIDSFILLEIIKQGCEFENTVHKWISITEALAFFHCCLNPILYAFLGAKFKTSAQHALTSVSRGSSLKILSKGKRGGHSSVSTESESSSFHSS
Sequence of CXCR4 (Mus musculus, UniProt P70658) (P70658 whole entry): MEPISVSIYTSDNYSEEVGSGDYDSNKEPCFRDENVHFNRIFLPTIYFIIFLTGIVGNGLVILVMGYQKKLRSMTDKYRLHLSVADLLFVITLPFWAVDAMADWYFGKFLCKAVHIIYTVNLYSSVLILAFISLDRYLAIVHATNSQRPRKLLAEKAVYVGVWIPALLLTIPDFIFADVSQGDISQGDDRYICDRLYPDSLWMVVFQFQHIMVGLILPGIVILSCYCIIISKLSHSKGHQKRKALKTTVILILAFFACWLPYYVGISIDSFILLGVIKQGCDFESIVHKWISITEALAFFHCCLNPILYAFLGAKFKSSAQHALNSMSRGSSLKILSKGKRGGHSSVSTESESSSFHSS

SMILES | influx of BMDCs in the irradiated tumor [1] | tumor reduction induced by bortezomib [2] | cell viability of RPMI-8226 cells cocultured with stromal MS-5 cells [3] | viability of stromal MS-5 cells [4]
c1cc(CN2CCCNCCNCCCNCC2)ccc1CN1CCCNCCNCCCNCC1 [AMD3100] | prevented the influx of BMDCs in the irradiated tumor | enhanced tumor reduction induced by bortezomib | – | –
Nc1nc(F)nc2c1ncn2[C@@H]1O[C@H](CO)[C@@H](O)[C@@H]1O [F-ara-A, Fludarabine, reference compound] | – | – | no significant effect | neither affected
